Reference: paper PMC9351465, “Mechanism-based heparanase inhibitors reduce cancer metastasis in vivo” (Proceedings of the National Academy of Sciences of the …, 2022)
pIC50: −log10 of the molar value. Where “and” joins values, the source holds several entries; their conditions need not be identical. Equal entries are not always repeated. Entries after “also recorded” stand apart in the source; their conditions may differ.

Legend:
[1] = molecular target: exo-β-glucuronidase EcGUSB (Escherichia coli, UniProt P05804); experiment: cABPP with ABP 7, recombinant EcGUSB; conditions: competition with ABP 7
HPSE [2] = molecular target: T1, HPSE (Homo sapiens, UniProt Q9Y251); experiment: H35SPG basement membrane (ECM) digest by recombinant HPSE; type: biochemical; conditions: for inhibition of recombinant HPSE-mediated H35SPG cleavage: 200 ng HPSE, pH 6.0, 37°C, 5 h
T1 sequence (Q9Y251 158-543 limits assumed): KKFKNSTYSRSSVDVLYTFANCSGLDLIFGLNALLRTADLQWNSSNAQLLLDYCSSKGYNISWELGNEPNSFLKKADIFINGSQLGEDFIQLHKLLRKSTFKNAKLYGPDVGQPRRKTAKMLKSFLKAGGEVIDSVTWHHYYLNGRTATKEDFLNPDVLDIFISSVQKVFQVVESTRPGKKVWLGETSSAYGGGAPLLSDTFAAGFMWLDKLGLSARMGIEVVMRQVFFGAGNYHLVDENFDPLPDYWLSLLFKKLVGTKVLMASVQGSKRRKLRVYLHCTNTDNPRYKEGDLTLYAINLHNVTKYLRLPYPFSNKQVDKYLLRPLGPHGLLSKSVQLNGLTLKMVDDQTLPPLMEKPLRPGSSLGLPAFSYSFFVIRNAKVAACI
T1 sequence (Q9Y251 36-109 limits assumed): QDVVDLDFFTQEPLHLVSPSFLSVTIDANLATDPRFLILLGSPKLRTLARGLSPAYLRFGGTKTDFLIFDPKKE
Description: Finally, we assessed our inhibitors against HPSE-mediated degradation of bona fide HSPGs in an ECM environment. Cultured bovine corneal endothelial cells secrete a subendothelial basement membrane material rich in proteoglycans, which can be radiolabeled by growth in the presence of ^35SO4^2− ([50]). Solubilized H^35S chains released from H^35SPGs by HPSE digestion can be resolved chromatographically, with HPSE inhibition leading to a corresponding loss of signal. […] We also tested inhibition of endogenous cellular HPSE using this assay format. […]
ECM coated 35 mm culture dishes containing 35S labelled HS were prepared as previously described (10). Briefly, bovine corneal endothelial cells were plated at an initial density of 2x10^5 cells/ml, with 4% dextran T-40 (Sigma) included in the growth medium. Na235SO4 (25 µCi/ml) was added to the incubation medium on days 2 and 5 after seeding. On day 12, subendothelial ECM is exposed by dissolving the cells with PBS containing 0.5% Triton X-100 and 20 mM NH4OH, followed by four washes with PBS.
(§1) For HS-degradation assays, ECM coated dishes were incubated with 200 ng recombinant HPSE in 1 mL reaction mixture (10 mM buffer Phosphate-Citrate pH 6.0, 50 mM NaCl, 1 mM DTT, 1 mM CaCl2) containing HPSE inhibitors or DMSO control. Plates were incubated at 37°C for 5 h, then assay medium collected and applied to a 0.9×30 cm Sepharose 6B size exclusion column. The Sepharose 6B column was eluted with PBS, and 35S radioactivity of 0.2 mL fractions quantitated using a liquid scintillation analyzer (Packard BioScience) (11). […]
Matrigel and […]
non-migrating cells in the upper side of the Boyden filter were removed by swabbing, then invading cells on the bottom side of the transwell filter imaged for analysis. […]
B16 melanoma - Twenty minutes before tumor cell inoculation, C57BL/J6 mice (n=5) were injected intraperitoneally with vehicle alone (PBS), compound 2 (300 nmol/mouse), or SST0001 (150 µg/mouse). Mice were subsequently intravenously inoculated with 1.5x105

GUSB = molecular target: T2, GUSB (Homo sapiens, UniProt P08236); experiment: cABPP of human platelet lysates, GUSB band; conditions: human platelet lysates containing both HPSE and GUSB
T2 sequence (P08236 23-651): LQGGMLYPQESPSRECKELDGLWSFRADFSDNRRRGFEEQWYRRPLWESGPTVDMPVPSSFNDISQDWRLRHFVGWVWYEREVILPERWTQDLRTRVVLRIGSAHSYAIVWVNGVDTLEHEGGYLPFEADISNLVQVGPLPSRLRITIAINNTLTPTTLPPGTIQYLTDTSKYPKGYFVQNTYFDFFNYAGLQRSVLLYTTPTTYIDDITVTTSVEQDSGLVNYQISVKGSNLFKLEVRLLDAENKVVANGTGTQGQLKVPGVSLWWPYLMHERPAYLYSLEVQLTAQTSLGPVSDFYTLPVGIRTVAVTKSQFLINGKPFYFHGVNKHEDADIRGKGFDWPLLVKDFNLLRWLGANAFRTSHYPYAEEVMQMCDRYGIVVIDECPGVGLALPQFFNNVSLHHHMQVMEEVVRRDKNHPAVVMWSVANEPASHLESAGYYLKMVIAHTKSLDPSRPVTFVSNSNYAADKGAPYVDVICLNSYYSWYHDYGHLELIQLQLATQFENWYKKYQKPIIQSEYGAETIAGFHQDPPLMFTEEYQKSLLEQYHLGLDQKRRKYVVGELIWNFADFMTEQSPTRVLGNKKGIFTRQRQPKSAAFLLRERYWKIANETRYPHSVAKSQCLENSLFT

HPSE [3] = molecular target: T1, HPSE; experiment: competitive activity-based protein profiling (cABPP) with ABP 7, recombinant HPSE; conditions: recombinant HPSE 20 nM, 1 h preincubation at 37°C, then 100 nM ABP 7, pH 5.5
HPSE [4] = molecular target: T1, HPSE; experiment: colorimetric fondaparinux cleavage assay; type: biochemical
Procedure: We next investigated the ability of our inhibitors to abrogate HPSE processing of its native oligosaccharide substrates, using a colorimetric assay that detects cleavage of the synthetic HS pentasaccharide fondaparinux ([49]). […]
Fondaparinux cleavage was performed essentially as previously described (9). Briefly, assays were carried out in 96 well plates (Nunc) pretreated with 4% BSA in TBS-T (20 mM Tris pH 7.4, […]
100 µL reactions were set up in 40 mM NaOAc pH 5.0 buffer, containing final concentrations of 200 ng/mL HPSE, 100 µM Fondaparinux (Arixtra) and specified concentrations of inhibitors.
Reactions were incubated at 37°C for 18 h, then quenched with 100 µL 0.1 M NaOH supplemented with 1.7 mM WST-1 tetrazolium salt, and incubated at 60°C for 1 h. Absorbance at 584 nm was read using an ELISA plate reader (BIO-TEK Instruments). All reactions were carried out in technical duplicate. Data were plotted and analyzed using Sigmaplot (Systat). […]

U87 glioblastoma cells = experiment: Matrigel invasion assay; type: cell-based, human; conditions: 20 µM inhibitor, 4 h
Procedure: Preliminary in cellulo evaluations of our inhibitors’ effects on cancer aggression were conducted using a Matrigel invasion assay, which measures the ability of cells to migrate through transwell inserts coated with the ECM material Matrigel. Matrigel invasion by cells requires a broad complement of proteases and glycosidases, thereby mimicking some aspects of metastasis in vivo ([51]).
as §1
Cells in the upper chamber were separated by Matrigel from a lower chamber containing 600 µL DMEM, supplemented with 10% FBS. […] 10 randomly selected microscopic fields were recorded, and cell invasion calculated using ImageJ, by quantitating the percentage of the field stained by crystal violet. […]

human platelet HPSE = molecular target: T3, human platelet HPSE (Homo sapiens, UniProt Q9Y251); experiment: cABPP of human platelet lysates, HPSE band
T3 sequence (Q9Y251 158-543 limits assumed): T1 sequence (Q9Y251 158-543 limits assumed)
T3 sequence (Q9Y251 36-109 limits assumed): T1 sequence (Q9Y251 36-109 limits assumed)

BpHep and AcGH79 = type: biochemical, Burkholderia pseudomallei; Acidobacterium capsulatum; conditions: recombinant enzymes, competition with ABP 7

SMILES: O=C(O)[C@@H]1[C@@H](O)[C@H](O)[C@@H](O)[C@@H]2O[C@@H]21 [compound 1, glucuronyl-cyclophellitol]
- EcGUSB inhibition (cABPP) [1]: inhibited
- inhibition of recombinant HPSE-mediated H35SPG cleavage (HPSE [2]): no HPSE inhibition was observed
- selectivity of GUSB inhibition in platelet lysates (GUSB): exclusively inhibited GUSB
- HPSE inhibition (cABPP) (HPSE [3]): ineffective HPSE inhibitor up to 10 μM
- HPSE inhibition, fondaparinux cleavage (HPSE [4]; at 50 μM): Little HPSE inhibition

SMILES: CC(=O)N[C@H]1[C@@H](O[C@H]2[C@H](O)[C@@H](O)[C@@H]3O[C@@H]3[C@@H]2C(=O)O)O[C@H](COS(=O)(=O)O)[C@@H](O)[C@@H]1O [compound 3]
- inhibition of recombinant HPSE-mediated H35SPG cleavage (HPSE [2]): robust, dose-dependent inhibition
- level of inhibition of H35SPG cleavage relative to 4.6 μM 10 (HPSE [2]; 1 μM 2 or 3 compared to 4.6 μM 10): comparable levels of inhibition
- Matrigel invasion (% field stained) (U87 glioblastoma cells): significantly reduced Matrigel invasion
- HPSE inhibition (cABPP) (HPSE [3]): nanomolar HPSE inhibition potencies; also recorded: greater potency than 2 and 4
- pIC50 (HPSE [4]; 200 ng/mL HPSE, 100 µM fondaparinux, pH 5.0, 37°C, 18 h, n = 2, read-out: IC50, HPSE-mediated fondaparinux cleavage): 6.28 and ~6.29
- pIC50 (human platelet HPSE; HPSE IC50, human platelet lysates, cABPP, n = 3): ~7.22 and 7.25
- selectivity of HPSE inhibition in platelet lysates (human platelet HPSE; human platelet lysates containing both HPSE and GUSB): highly selective inhibition of human platelet HPSE

SMILES: O=C(O)[C@@H]1[C@@H](O[C@H]2O[C@H](CO)[C@@H](O)[C@H](O)[C@H]2O)[C@H](O)[C@@H](O)[C@@H]2O[C@@H]21 [compound 4]
- HPSE inhibition (cABPP) (HPSE [3]): nanomolar HPSE inhibition potencies

SMILES: N[C@H]1[C@@H](O[C@H]2[C@H](O)[C@@H](O)[C@@H]3O[C@@H]3[C@@H]2C(=O)O)O[C@H](CO)[C@@H](O)[C@@H]1O [compound 5]
- inhibition of BpHep and AcGH79 (cABPP) (BpHep and AcGH79): all compounds apart from 5 showing activity
- HPSE inhibition (cABPP) (HPSE [3]): weaker inhibition
